Earlier results, collected in patent publication US20240050950A1, “GRADIENT-BASED MICROFLUIDIC CIRCUIT, DEVICE, AND METHOD FOR PERFORMING AN ASSAY” (priority 2020, published 2024).
Counter-ions that a name gives are not always drawn. Like-named read-outs stand apart in the source and are kept apart here. Numbered stars: 1 amine (or outer) side, 2 acyl side, 3 side chain; on linkers, the order of the positions; unused ones are H or OH. Bridge positions count the residues as written; N and C are the ends. Square brackets hold non-standard residues; d marks the D form. Peptide text beside a SMILES is read from it. X1 = CC(C)CCCCCCCCC[C@H](CC(=O)[*:1])O[*:2]

Conditions: cited from earlier work
[1] = Table 1, antimicrobial agents/drugs
[2] = Table 3, antifungal drugs and other molecules

Row | Compound | Molar volume [1] [cm^3] | Molar volume (Table 2, anticancer drugs) [cm^3] | Molar volume [2] [cm^3]
1 | Cc1ncc([N+](=O)[O-])n1C [Dimetridazole] | 103.4 ± 7.0 | – | –
2 | CC[C@H]1OC(=O)[C@H](C)[C@@H](O[C@H]2C[C@@](C)(OC)[C@@H](O)[C@H](C)O2)[C@H](C)[C@@H](O[C@@H]2O[C@H](C)C[C@H](N(C)C)[C@H]2O)[C@](C)(O)C[C@@H](C)/C(=N\OCOCCOC)[C@H](C)[C@@H](O)[C@]1(C)O [Roxithromycin] | 666.3 ± 7.0 | – | –
3 | Cc1nccn1CC1CCc2c(c3ccccc3n2C)C1=O (stereo not drawn) [Zofran (Ondansetron Hydrochloride), Ondansetron Hydrochloride] | – | 230.1 ± 7.0 | –
4 | CC[C@@H]1/C=C/C=C/C[C@H](C)[C@H](O)[C@](C)(O)C(=O)[C@H](C)[C@@H](O)[C@H](C)C(=O)[C@H](C)[C@@H](O)[C@H](C)/C=C/C(=O)O[C@H]2[C@@H](C)[C@@H](CC1)O[C@@]1(CC[C@@H](C)[C@@H](C[C@H](C)O)O1)[C@@H]2C [Oligomycin A] | 688.2 ± 5.0 | – | 688.2 ± 5.0
5 | Nc1ncnc2c([C@@H]3O[C@H](CO)[C@@H](O)[C@H]3O)[nH]nc12 [Formycin A] | 128.1 ± 7.0 | – | –
6 | CC(/C=C/C[C@@H](C)/C=C(C)/C=C/[C@@H]1OC(=O)C=C[C@@H]1C)=C\[C@@H](C)C(=O)[C@@H](C)[C@H](O)[C@@H](C)C/C(C)=C/C(=O)O [Leptomycin A] | 487.8 ± 3.0 | – | –
7 | Neomycin | 380.3 ± 5.0 | – | –
8 | O=C(c1ccc(F)c(F)c1Nc1ccc(I)cc1F)N1CC(O)([C@@H]2CCCCN2)C1 [Cobimetinib] | – | 311.3 ± 3.0 | –
9 | CCC1=C[C@@H]2CN(C1)Cc1c([nH]c3ccccc13)[C@@](C(=O)OC)(c1cc3c(cc1OC)N(C)[C@H]1[C@@](O)(C(=O)OC)[C@H](OC(C)=O)[C@]4(CC)C=CCN5CC[C@]31[C@@H]54)C2 [Navelbine (Vinorelbine Tartrate), Vinorelbine Tartrate] | – | 569.7 ± 5.0 | –
10 | CN(C)CCOc1ccc(/C(=C(/CCCl)c2ccccc2)c2ccccc2)cc1 [Fareston (Toremifene), Toremifene] | – | 367.6 ± 3.0 | –
11 | CN[C@@H]1[C@H](O[C@H]2[C@H](O[C@H]3[C@H](O)[C@@H](O)[C@H](NC(=N)N)[C@@H](O)[C@@H]3NC(=N)N)O[C@@H](C)[C@]2(O)CO)O[C@@H](CO)[C@H](O)[C@H]1O [Dihydrostreptomycin] | 293.4 ± 7.0 | – | –
12 | C[C@H](N)C(=O)N[C@@H](C)P(=O)(O)O [L-Alanyl-L-1-aminoethylphosphonic acid] | 140.5 ± 3.0 | – | –
13 | CC(=O)N1CCN(c2ccc(OCC3COC(Cn4ccnc4)(c4ccc(Cl)cc4Cl)O3)cc2)CC1 (stereo not drawn) [Ketoconazole] | 384.9 ± 7.0 | – | 389.4
14 | Oc1ccc(Cl)cc1Cc1cc(Cl)ccc1O [Dichlorophene] | 189.5 ± 3.0 | – | –
15 | CCCCc1ccc(C(=O)O)nc1 [Fusaric acid (5-Butylpicolinic acid), 5-Butylpicolinic acid] | 161.0 ± 3.0 | – | –
16 | COc1cc([C@@H]2c3cc4c(cc3[C@@H](O[C@@H]3O[C@@H]5CO[C@@H](C)O[C@H]5[C@H](O)[C@H]3O)[C@H]3COC(=O)[C@H]23)OCO4)cc(OC)c1OP(=O)(O)O [Etopophos (Etoposide Phosphate), Etoposide Phosphate] | – | 406.7 ± 5.0 | –
17 | C[C@@H](Oc1cc(-c2cnn(C3CCNCC3)c2)cnc1N)c1c(Cl)ccc(F)c1Cl [Crizotinib (Xalkori), Crizotinib] | – | 305.2 ± 7.0 | –
18 | Bleomycin | – | – | 887.0 ± 5.0
19 | Cc1ncc([N+](=O)[O-])n1CCO [Metronidazole] | 117.8 ± 7.0 | – | –

Row | Compound | Molar volume [1] [cm^3] | Molar volume (Table 2, anticancer drugs) [cm^3] | Molar volume [2] [cm^3]
20 | CCCCC(=O)OCC(=O)[C@]1(O)Cc2c(O)c3c(c(O)c2[C@@H](O[C@H]2C[C@H](NC(=O)C(F)(F)F)[C@H](O)[C@H](C)O2)C1)C(=O)c1c(OC)cccc1C3=O [Valrubicin] | – | 469.8 ± 5.0 | –
21 | Cc1onc(-c2ccccc2)c1C(=O)N[C@@H]1C(=O)N2[C@@H]1SC(C)(C)[C@@H]2C(=O)O [Oxacillin] | 268.4 ± 5.0 | – | –
22 | CN1CCN(c2cc3c(cc2F)c(=O)c(C(=O)O)cn3-c2ccc(F)cc2)CC1 [Difloxacin] | 283.2 ± 3.0 | – | –
23 | CNC(=O)c1ccc(N2C(=S)N(c3ccc(C#N)c(C(F)(F)F)c3)C(=O)C2(C)C)cc1F [Enzalutamide (Xtandi), Enzalutamide] | – | 310.0 ± 5.0 | –
24 | Aculeacin A | 754.1 ± 5.0 | – | –
25 | C[C@@H]1[C@H](O)[C@@H](C)/C=C/C=C/C=C/C=C/C=C/C=C/C=C/[C@H](O[C@@H]2O[C@H](C)[C@@H](O)[C@H](N)[C@@H]2O)C[C@@H]2O[C@](O)(C[C@@H](O)C[C@@H](O)[C@H](O)CC[C@@H](O)C[C@@H](O)CC(=O)O[C@H]1C)C[C@H](O)[C@H]2C(=O)O [Amphotericin B (Fungizone), Amphotericin B] | 689.4 ± 5.0 | – | –
26 | Ikarugamycin | 390.4 ± 5.0 | – | –
27 | CC1=C(C(=O)O)N2C(=O)[C@@H](N)[C@H]2SC1 [7-Aminodesacetoxycephalosporanic acid] | 134.0 ± 5.0 | – | –
28 | Cc1c2oc3c(C)c(N)cc(C(=O)N[C@@H]4C(=O)N[C@H](C(C)C)C(=O)N5CCC[C@H]5C(=O)N(C)CC(=O)N(C)[C@@H](C(C)C)C(=O)O[C@@H]4C)c3nc-2c(C(=O)N[C@@H]2C(=O)N[C@H](C(C)C)C(=O)N3CCC[C@H]3C(=O)N(C)CC(=O)N(C)[C@@H](C(C)C)C(=O)O[C@@H]2C)c(N)c1=O [7-Aminoactinomycin D (7-ADD), 7-Aminoactinomycin D] | 877.3 ± 7.0 | – | –
29 | O=C(/C=C/c1cccc(S(=O)(=O)Nc2ccccc2)c1)NO [Beleodaq (Belinostat), Belinostat] | – | 222.9 ± 3.0 | –
30 | Antimycin | – | – | 431.0 ± 5.0
31 | CC(C)CCCCCCCCC[C@@H]1CC(=O)N[C@@H](CCC(=O)O)C(=O)N[C@@H](CC(C)C)C(=O)N[C@H](CC(C)C)C(=O)N[C@@H](C(C)C)C(=O)N[C@@H](CC(=O)O)C(=O)N[C@H](CC(C)C)C(=O)N[C@@H](CC(C)C)C(=O)O1 [Surfactin] (EL[dL]VD[dL]L; linker N-C via X1) | – | – | 998.6 ± 3.0
32 | O=C1C=C2C(=CCOC2O)O1 (stereo not drawn) [Patulin] | 101.3 ± 5.0 | – | –
33 | C/C=C/[C@H]1O[C@@](O)([C@@H](C)[C@H](O)[C@H](C)[C@H]2OC(=O)/C(OC)=C/C(C)=C/[C@@H](C)[C@@H](O)[C@@H](CC)[C@@H](O)[C@H](C)C/C(C)=C/C=C/[C@@H]2OC)C[C@@H](O[C@H]2C[C@@H](O)[C@H](OC(N)=O)[C@@H](C)O2)[C@@H]1C [Concanamycin A (Folimycin), Concanamycin A] | 703.1 ± 7.0 | – | –
34 | Colistin | 916.9 ± 5.0 | – | –
35 | NCC[C@H](O)C(=O)N[C@@H]1C[C@H](N)[C@@H](O[C@H]2O[C@H](CN)[C@@H](O)[C@H](O)[C@H]2O)[C@H](O)[C@H]1O[C@H]1O[C@H](CO)[C@@H](O)[C@H](N)[C@H]1O [Amikacin] | 363.9 ± 5.0 | – | –
36 | CN[C@@H]1[C@@H](O)[C@@H](O[C@@H]2[C@@H](O)[C@H](O[C@H]3O[C@H]([C@@H](C)O)[C@@H](O)[C@H](O)[C@H]3N)[C@@H](N)C[C@H]2N)OC[C@]1(C)O [G 418] | 336.3 ± 5.0 | – | –
37 | CC1(C)S[C@@H]2[C@H](N)C(=O)N2[C@H]1C(=O)O [(+)-6-Aminopenicillanic acid (6-APA), (+)-6-Aminopenicillanic acid] | 142.0 ± 5.0 | – | –
